Measured values published in PubChem BioAssay (NCI).
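Interpolation was linear, between the two tested concentrations surrounding the appropriate level; five concentrations were tested over 48 hours in 96-well plates. GI50 = concentration required for 50% inhibition of growth. At the TGI there is no net growth.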

How the values were obtained:
Test in all cases: NCI-60 cell line screen, 48 h
PC-3 prostate = system: PC-3 prostate
UACC-257 melanoma = system: UACC-257 melanoma
SW-620 colon = system: SW-620 colon
T-47D breast = system: T-47D breast
MOLT-4 leukemia = system: MOLT-4 leukemia
A498 renal = system: A498 renal
MALME-3M melanoma = system: MALME-3M melanoma
NCI/ADR-RES ovarian = system: NCI/ADR-RES ovarian
K-562 leukemia = system: K-562 leukemia
UACC-62 melanoma = system: UACC-62 melanoma
A549 NSCLC = system: A549 NSCLC
SK-MEL-5 melanoma = system: SK-MEL-5 melanoma
MDA-MB-435 = system: MDA-MB-435
SNB-19 CNS = system: SNB-19 CNS
NCI-H460 lung = system: NCI-H460 lung
NCI-H522 lung = system: NCI-H522 lung
TK-10 renal = system: TK-10 renal
DU-145 prostate = system: DU-145 prostate
SN12C renal = system: SN12C renal
MDA-MB-231 breast = system: MDA-MB-231 breast
HS 578T breast = system: HS 578T breast
CAKI-1 renal = system: CAKI-1 renal
OVCAR-3 ovarian = system: OVCAR-3 ovarian
NCI-H226 lung = system: NCI-H226 lung
SF-268 CNS = system: SF-268 CNS
BT-549 breast = system: BT-549 breast
HT29 colon = system: HT29 colon
OVCAR-5 ovarian = system: OVCAR-5 ovarian
IGROV1 ovarian = system: IGROV1 ovarian

In the case of `C[C@@H]1CCC2[C@@H](C)[C@@H](OC3CCC(O)CC3)OC3O[C@@]4(C)CCC1[C@]32OO4` (stereo partly drawn), the GI50 (PC-3 prostate) is reported as 23.9 µM, the TGI (PC-3 prostate) is reported as over 100 µM and the GI50 (UACC-257 melanoma) is reported as over 100 µM. For the same compound, the TGI (UACC-257 melanoma) was over 100 µM, the GI50 (SW-620 colon) was over 100 µM and the TGI (SW-620 colon) was over 100 µM. For the same compound, the GI50 (T-47D breast) was 19.9 µM, the TGI (T-47D breast) was over 100 µM and the GI50 (MOLT-4 leukemia) was 10.1 µM. It also gave a TGI (MOLT-4 leukemia) of over 100 µM, a GI50 (A498 renal) of over 100 µM and a TGI (A498 renal) of over 100 µM. It also gave a GI50 (MALME-3M melanoma) of over 100 µM, a TGI (MALME-3M melanoma) of over 100 µM and a GI50 (NCI/ADR-RES ovarian) of 39.9 µM. It also gave a TGI (NCI/ADR-RES ovarian) of over 100 µM, a GI50 (K-562 leukemia) of 26.8 µM and a TGI (K-562 leukemia) of over 100 µM. The GI50 (UACC-62 melanoma) was 72 µM, the TGI (UACC-62 melanoma) was over 100 µM and the GI50 (A549 NSCLC) was 67.1 µM. The TGI (A549 NSCLC) was over 100 µM, the GI50 (SK-MEL-5 melanoma) was 36.3 µM and the TGI (SK-MEL-5 melanoma) was over 100 µM. It also gave a GI50 (MDA-MB-435) of over 100 µM, a TGI (MDA-MB-435) of over 100 µM and a GI50 (SNB-19 CNS) of over 100 µM. It also gave a TGI (SNB-19 CNS) of over 100 µM, a GI50 (NCI-H460 lung) of over 100 µM and a TGI (NCI-H460 lung) of over 100 µM. For the same compound, the GI50 (NCI-H522 lung) was 38.5 µM, the TGI (NCI-H522 lung) was over 100 µM and the GI50 (TK-10 renal) was 36.8 µM. For the same compound, the TGI (TK-10 renal) was over 100 µM, the GI50 (DU-145 prostate) was over 100 µM and the TGI (DU-145 prostate) was over 100 µM. The GI50 (SN12C renal) was over 100 µM, the TGI (SN12C renal) was over 100 µM and the GI50 (MDA-MB-231 breast) was over 100 µM. For the same compound, the TGI (MDA-MB-231 breast) was over 100 µM, the GI50 (HS 578T breast) was 90.2 µM and the TGI (HS 578T breast) was over 100 µM. For the same compound, the GI50 (CAKI-1 renal) was 95.9 µM, the TGI (CAKI-1 renal) was over 100 µM and the GI50 (OVCAR-3 ovarian) was 66.7 µM. It also gave a TGI (OVCAR-3 ovarian) of over 100 µM, a GI50 (NCI-H226 lung) of over 100 µM and a TGI (NCI-H226 lung) of over 100 µM. It also gave a GI50 (SF-268 CNS) of 76.5 µM, a TGI (SF-268 CNS) of over 100 µM and a GI50 (BT-549 breast) of over 100 µM. It also gave a TGI (BT-549 breast) of over 100 µM, a GI50 (HT29 colon) of 97.4 µM and a TGI (HT29 colon) of over 100 µM. For the same compound, the GI50 (OVCAR-5 ovarian) was 82.4 µM, the TGI (OVCAR-5 ovarian) was over 100 µM and the GI50 (IGROV1 ovarian) was over 100 µM. It also gave a TGI (IGROV1 ovarian) of over 100 µM.
